This experiment deals with HLA-A*24. The experiment can be described thus: MHC binding assay (UV-ligand exchange, beta2m ELISA), HLA-A*24. The arrangement: species or system human. The conditions noted are these: MHC class I binding score, peptide exchange yield. An excerpt: Candidate peptides for T cell based therapies according to the present invention were further tested for their MHC binding capacity (affinity). The individual peptide-MHC complexes were produced by UV-ligand exchange, where a UV-sensitive peptide is cleaved upon UV-irradiation, and exchanged with the peptide of interest as analyzed. Only peptide candidates that can effectively bind and stabilize the peptide-receptive MHC molecules prevent dissociation of the MHC complexes. To determine the yield of the exchange reaction, an ELISA was performed based on the detection of the light chain ([…] of stabilized MHC complexes. The assay was performed as generally described in Rodenko et al. (Rodenko et al., 2006).
96 well MAXISorp plates (NUNC) were coated over night with 2 ug/ml streptavidin in PBS at room temperature, washed 4× and blocked for 1 h at 37° C. in 2% BSA containing blocking buffer. Refolded HLA-A*02:01/MLA-001 monomers served as standards, covering the range of 15-500 ng/ml. Peptide-MHC monomers of the UV-exchange reaction were diluted 100 fold in blocking buffer. Samples were incubated for 1 h at 37° C., washed four times, incubated with 2 ug/ml HRP conjugated anti-β2m for 1 h at 37° C., washed again and detected with TMB solution that is stopped with […]. Absorption was measured at 450 nm. Candidate peptides that show a high exchange yield (preferably higher than 50%, most preferred higher than 75%) are generally preferred for a generation and production of antibodies or fragments thereof, and/or T cell receptors or fragments thereof, as they show sufficient avidity to the MHC molecules and prevent dissociation of the MHC complexes.

For the substance “160 (VYTLDIPVL; listed as Homo sapiens) [compound 160]”, the Peptide exchange result is listed as “++++ (>=75% = ++++)”. As to “161 (IYLVSIPEL; listed as Homo sapiens) [compound 161]”, the Peptide exchange result was “++++ (>=75% = ++++)”. With “166 (YYVESGKLF; listed as Homo sapiens) [compound 166]” the entry was “++++ (>=75% = ++++)”. The same measure for “168 (KYQDILETI; listed as Homo sapiens) [compound 168]”: “++++ (>=75% = ++++)”. With “172 (TYTTVPRVAF; listed as Homo sapiens) [compound 172]” the entry was “++++ (>=75% = ++++)”. On to “173 (IYSWILDHF; listed as Homo sapiens) [compound 173]”, for which the Peptide exchange result was “++++ (>=75% = ++++)”.

Regarding “175 (YYEVHKELF; listed as Homo sapiens) [compound 175]”, the Peptide exchange result is “++++ (>=75% = ++++)”.

In the case of “177 (VYPWLGALL; listed as Homo sapiens) [compound 177]”, the Peptide exchange entry was “++++ (>=75% = ++++)”. On to “179 (MYDSYWRQF; listed as Homo sapiens) [compound 179]”, for which the Peptide exchange result is “++++ (>=75% = ++++)”. With “181 (LYLDIINLF; listed as Homo sapiens) [compound 181]” the entry was “++++ (>=75% = ++++)”; with “184 (VFQNFPLLF; listed as Homo sapiens) [compound 184]”, “++++ (>=75% = ++++)”. The same measure for “186 (IFPQFLYQF; listed as Homo sapiens) [compound 186]”: “++++ (>=75% = ++++)”; for “187 (TYLRDQHFL; listed as Homo sapiens) [compound 187]”: “++++ (>=75% = ++++)”; for “192 (SYALLTYMI; listed as Homo sapiens) [compound 192]”: “++++ (>=75% = ++++)”. The same measure for “193 (RFHPTPLLL; listed as Homo sapiens) [compound 193]”: “++++ (>=75% = ++++)”.

Turning to “194 (EFGSLHLEFL; listed as Homo sapiens) [compound 194]”, the Peptide exchange result is listed as “+ (<20% = +)”. With “195 (TYSVSFPMF; listed as Homo sapiens) [compound 195]” the entry was “++++ (>=75% = ++++)”; with “202 (VYWDSAGAAHF; listed as Homo sapiens) [compound 202]”, “++++ (>=75% = ++++)”; with “210 (IYTMIYRNL; listed as Homo sapiens) [compound 210]”, “++++ (>=75% = ++++)”. The same measure for “211 (YYLEVGKTLI; listed as Homo sapiens) [compound 211]”: “++++ (>=75% = ++++)”; for “216 (QYSSVFKSL; listed as Homo sapiens) [compound 216]”: “++++ (>=75% = ++++)”; for “217 (FFPPTRQMGLLF; listed as Homo sapiens) [compound 217]”: “++++ (>=75% = ++++)”. The same measure for “227 (IFLDYEAGTLSF; listed as Homo sapiens) [compound 227]”: “++++ (>=75% = ++++)”. As for “228 (KYTSWYVAL; listed as Homo sapiens) [compound 228]”, the Peptide exchange entry is given as “++++ (>=75% = ++++)”. Turning to “267 (KYMVYPQTF; listed as Homo sapiens) [compound 267]”, the Peptide exchange entry is “++++ (>=75% = ++++)”. With “271 (LYHDIFSRL; listed as Homo sapiens) [compound 271]” the entry was “++++ (>=75% = ++++)”; with “272 (QYLQDAYSF; listed as Homo sapiens) [compound 272]”, “++++ (>=75% = ++++)”. With “274 (AYLHSHALI; listed as Homo sapiens) [compound 274]” the entry was “++++ (>=75% = ++++)”; with “276 (VYGFQWRHF; listed as Homo sapiens) [compound 276]”, “++++ (>=75% = ++++)”.

These data come from US20170189507A1, “NOVEL PEPTIDES AND COMBINATION OF PEPTIDES FOR USE IN IMMUNOTHERAPY AGAINST VARIOUS CANCERS” (immatics biotechnologies GmbH, priority 2015, published 2017).
